Results reported in ChEMBL document CHEMBL3526014, “Correlation between bilirubin glucuronidation and estradiol-3-gluronidation in the presence of model UDP-glucuronosyltransferase 1A1 substrates/inhibitors” (Drug Metab Dispos, 2011).

T1: UDP-glucuronosyltransferase 1A1 (Homo sapiens, UniProt P22309)
T1 sequence (P22309 whole entry): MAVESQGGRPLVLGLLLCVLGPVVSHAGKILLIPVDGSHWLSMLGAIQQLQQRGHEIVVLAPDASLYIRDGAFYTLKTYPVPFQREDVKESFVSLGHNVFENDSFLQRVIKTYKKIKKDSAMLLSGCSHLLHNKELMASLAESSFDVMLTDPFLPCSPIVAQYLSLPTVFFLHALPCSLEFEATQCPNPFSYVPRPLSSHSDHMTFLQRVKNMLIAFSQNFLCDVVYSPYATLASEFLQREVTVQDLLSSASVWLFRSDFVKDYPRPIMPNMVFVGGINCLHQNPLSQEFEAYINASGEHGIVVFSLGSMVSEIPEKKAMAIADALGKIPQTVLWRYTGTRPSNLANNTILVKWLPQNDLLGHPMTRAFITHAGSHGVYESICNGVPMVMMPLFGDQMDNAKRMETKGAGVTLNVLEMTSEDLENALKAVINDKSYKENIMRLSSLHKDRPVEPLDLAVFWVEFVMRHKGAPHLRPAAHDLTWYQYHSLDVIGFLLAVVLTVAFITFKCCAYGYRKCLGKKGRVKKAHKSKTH

T2: UGT1A1 (Homo sapiens, UniProt P22309)
T2 sequence (P22309 whole entry): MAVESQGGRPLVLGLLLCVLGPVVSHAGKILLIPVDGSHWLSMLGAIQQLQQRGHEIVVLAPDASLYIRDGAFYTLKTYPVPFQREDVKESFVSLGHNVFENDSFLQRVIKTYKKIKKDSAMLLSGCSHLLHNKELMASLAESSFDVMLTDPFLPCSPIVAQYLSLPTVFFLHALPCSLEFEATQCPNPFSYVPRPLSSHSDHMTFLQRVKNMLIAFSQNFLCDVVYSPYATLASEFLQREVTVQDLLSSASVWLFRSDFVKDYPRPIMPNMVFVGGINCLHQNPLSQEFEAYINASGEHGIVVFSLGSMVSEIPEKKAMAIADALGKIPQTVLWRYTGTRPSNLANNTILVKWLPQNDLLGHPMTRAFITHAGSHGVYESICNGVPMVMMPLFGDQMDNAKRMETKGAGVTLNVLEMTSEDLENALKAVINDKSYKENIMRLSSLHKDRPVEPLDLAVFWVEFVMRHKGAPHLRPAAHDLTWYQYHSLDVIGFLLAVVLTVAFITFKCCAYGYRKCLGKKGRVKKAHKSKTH

B1: UDP-glucuronosyltransferase 1A1 (Homo sapiens) (protein)
chain: MAVESQGGRPLVLGLLLCVLGPVVSHAGKILLIPVDGSHWLSMLGAIQQLQQRGHEIVVLAPDASLYIRDGAFYTLKTYPVPFQREDVKESFVSLGHNVFENDSFLQRVIKTYKKIKKDSAMLLSGCSHLLHNKELMASLAESSFDVMLTDPFLPCSPIVAQYLSLPTVFFLHALPCSLEFEATQCPNPFSYVPRPLSSHSDHMTFLQRVKNMLIAFSQNFLCDVVYSPYATLASEFLQREVTVQDLLSSASVWLFRSDFVKDYPRPIMPNMVFVGGINCLHQNPLSQEFEAYINASGEHGIVVFSLGSMVSEIPEKKAMAIADALGKIPQTVLWRYTGTRPSNLANNTILVKWLPQNDLLGHPMTRAFITHAGSHGVYESICNGVPMVMMPLFGDQMDNAKRMETKGAGVTLNVLEMTSEDLENALKAVINDKSYKENIMRLSSLHKDRPVEPLDLAVFWVEFVMRHKGAPHLRPAAHDLTWYQYHSLDVIGFLLAVVLTVAFITFKCCAYGYRKCLGKKGRVKKAHKSKTH

Experiments:
[1] = target: T1, UDP-glucuronosyltransferase 1A1; assay: Inhibition of human recombinant UGT1A1 expressed in HEK293 cells assessed as reduction in bilirubin glucuronidation by LC-MS/MS method; type: ADME, cell-based
[2] = target: T1, UDP-glucuronosyltransferase 1A1; assay: Inhibition of human recombinant UGT1A1 expressed in HEK293 cells assessed as reduction in estradiol 3-glucuronidation by LC-MS/MS method; type: ADME, cell-based
[3] = target: T1, UDP-glucuronosyltransferase 1A1; assay: Activation of human recombinant UGT1A1 expressed in HEK293 cells assessed as increase in estradiol 3-glucuronidation using 15 uM estradiol by LC-MS/MS method relative to untreated control; type: ADME, cell-based
UGT1A1 = target: T2, UGT1A1; assay: Activation of human recombinant UGT1A1 expressed in HEK293 cells assessed as increase in estradiol 3-glucuronidation using 7.5 uM estradiol by LC-MS/MS method relative to untreated control; type: ADME, cell-based; conditions: probe estradiol (3-glucuronidation)
[4] = target: T1, UDP-glucuronosyltransferase 1A1; assay: Activation of human recombinant UGT1A1 expressed in HEK293 cells assessed as increase in estradiol 3-glucuronidation by LC-MS/MS method relative to untreated control; type: ADME, cell-based
[5] = target: T1, UDP-glucuronosyltransferase 1A1; assay: Activation of human recombinant UGT1A1 expressed in HEK293 cells assessed as increase in estradiol 3-glucuronidation at 6.25 uM by LC-MS/MS method; type: ADME, cell-based; conditions: hek293, 6.25 µM
[6] = target: T1, UDP-glucuronosyltransferase 1A1; assay: Inhibition of human recombinant UGT1A1 expressed in HEK293 cells assessed as reduction in estradiol 3-glucuronidation at 50 uM using >15 uM estradiol by LC-MS/MS method; type: ADME, cell-based; conditions: hek293, 50 µM
[7] = target: T1, UDP-glucuronosyltransferase 1A1; assay: Activation of human recombinant UGT1A1 expressed in HEK293 cells assessed as increase in estradiol 3-glucuronidation at 6.25 uM using 4 uM estradiol by LC-MS/MS method relative to untreated control; type: ADME, cell-based; conditions: hek293, 6.25 µM
[8] = target: T1, UDP-glucuronosyltransferase 1A1; assay: Inhibition of human recombinant UGT1A1 expressed in HEK293 cells assessed as reduction in estradiol 3-glucuronidation using 4 to 75 uM estradiol by LC-MS/MS method; type: ADME, cell-based
[9] = substrate: CCc1c2c(nc3ccc(O)cc13)-c1cc3c(c(=O)n1C2)COC(=O)[C@]3(O)CC; assay: Drug metabolism assessed as UGT1A1 (unknown origin)-mediated compound glucuronidation; type: ADME, Homo sapiens

Molecule	IC50 [1]	IC50 ([2]; read-out: IC50)	further results
C#C[C@]1(O)CC[C@H]2[C@@H]3CCc4cc(O)ccc4[C@H]3CC[C@@]21C [ETHINYL ESTRADIOL]	21 µM	44 µM	Activity [3]: 128%; Activity (UGT1A1): ≤ 140%; Activity [4]: Active
O=c1c(-c2ccc(O)cc2)coc2cc(O)ccc12 [DAIDZEIN]	7.3 µM	120 µM	Activity [5]: Active; inhibition (INH) [6]: Active; Activity [7]: 392%; Activity [4]: Active
Nc1nc2ccc(OC(F)(F)F)cc2s1 [RILUZOLE]	180 µM	160 µM	–
Oc1cccc2ccccc12 [1-NAPHTHOL]	240 µM	280 µM	–
O=C1c2ccc(O)cc2C(=O)c2ccc(O)cc21	3.6 µM	4 µM	–
O=C1NC(=O)C(c2ccccc2)(c2ccc(O)cc2)N1 (configuration not stated)	120 µM	110 µM	–
CC(=O)N1CCN(c2ccc(OCC3COC(Cn4ccnc4)(c4ccc(Cl)cc4Cl)O3)cc2)CC1 (configuration not stated) [KETOCONAZOLE]	27 µM	13 µM	–
CCc1c2c(nc3ccc(O)cc13)-c1cc3c(c(=O)n1C2)COC(=O)[C@]3(O)CC [7-ETHYL-10-HYDROXYCAMPTOTHECIN]	360 µM	–	IC50 ([2]; hek293): Not Active; inhibition (INH) [8]: 40%
Cc1nnc(C(=O)NC(C)(C)c2nc(C(=O)NCc3ccc(F)cc3)c(O)c(=O)n2C)o1	170 µM	190 µM	–
CC(C)=CCC/C(C)=C/CC/C(C)=C/CO [FARNESOL]	47 µM	40 µM	–
Cc1cc(=O)oc2cc(O)ccc12 [HYMECROMONE]	100 µM	100 µM	–
O=C(O)c1cccnc1Nc1cccc(C(F)(F)F)c1 [NIFLUMIC ACID]	53 µM	13 µM	–
O=c1cc(-c2ccccc2)oc2cc(O)c(O)c(O)c12 [BAICALEIN]	7 µM	4.4 µM	–
N[C@@H](Cc1cc(I)c(Oc2cc(I)c(O)c(I)c2)c(I)c1)C(=O)O [LEVOTHYROXINE]	4.9 µM	5.6 µM	–
B1	–	–	Km [9]: 25 µM
